Assay: cn = amount concentration of the nth substance listed, in mol/dm3
Details: 101 kPa, Liquid; for molar conductivity: Shedlovsky-type conductance cell; for binary diffusion coefficient: Open capillary

CN[C@@H](C)[C@H](O)c1ccccc1.Cl [ephedrine hydrochloride] + O
Details	binary diffusion coefficient, 298.15 K [m2/s]	binary diffusion coefficient, 310.15 K [m2/s]	molar conductivity, 283.15 K [S·m2/mol]	molar conductivity, 293.15 K [S·m2/mol]	molar conductivity, 298.15 K [S·m2/mol]	molar conductivity, 303.15 K [S·m2/mol]	molar conductivity, 310.15 K [S·m2/mol]	molar conductivity, 323.15 K [S·m2/mol]
c1 = 0.00125	1.15e-09	1.57e-09	–	–	–	–	–	–
c1 = 0.00184	–	–	0.006571	0.008375	0.009463	0.01041	0.01195	0.01495
c1 = 0.002438	–	–	0.006463	0.008198	0.009282	0.01023	0.01173	0.01471
c1 = 0.0025	1.1e-09	1.56e-09	–	–	–	–	–	–
c1 = 0.00303	–	–	0.006355	0.008059	0.009127	0.01006	0.01154	0.01449
c1 = 0.003614	–	–	0.00628	0.007907	0.008991	0.009914	0.01139	0.01427
c1 = 0.004191	–	–	0.006181	0.007775	0.00886	0.009802	0.01125	0.01408
c1 = 0.004761	–	–	0.006103	0.007663	0.008753	0.009663	0.01108	0.01392
c1 = 0.00499	1.09e-09	1.5e-09	–	–	–	–	–	–
c1 = 0.005324	–	–	0.006044	0.007564	0.008653	0.009567	0.01096	0.01377
c1 = 0.005881	–	–	0.00599	0.007468	0.008556	0.009474	0.01085	0.01356
c1 = 0.006431	–	–	0.005925	0.007377	0.008465	0.009363	0.01074	0.01344
c1 = 0.006975	–	–	0.00586	0.007288	0.008374	0.009271	0.01064	0.01332
c1 = 0.00746	1.03e-09	1.45e-09	–	–	–	–	–	–
c1 = 0.007513	–	–	0.005794	0.007199	0.008283	0.009197	0.01052	0.01318
c1 = 0.008044	–	–	0.005736	0.007119	0.008199	0.00911	0.01042	0.01307
c1 = 0.008569	–	–	0.005685	0.007044	0.00812	0.009028	0.01033	0.01295
c1 = 0.009089	–	–	0.005635	0.006974	0.008044	0.008949	0.01023	0.01284
c1 = 0.009602	–	–	0.005584	0.006908	0.007975	0.008878	0.01015	0.01274
c1 = 0.01	1e-09	1.41e-09	–	–	–	–	–	–
c1 = 0.01011	–	–	0.005537	0.006846	0.007908	0.008807	0.01007	0.01264
c1 = 0.01061	–	–	0.005491	0.006795	0.00784	0.008734	0.009982	0.01254
c1 = 0.01111	–	–	0.005446	0.006723	0.007774	0.008665	0.009901	0.01244
c1 = 0.0116	–	–	0.005401	0.006663	0.007709	0.008596	0.009821	0.01234
c1 = 0.01209	–	–	0.005359	0.006604	0.007646	0.008528	0.009742	0.01226
c1 = 0.01256	–	–	0.00532	0.006549	0.007586	0.008464	0.009673	0.01215
c1 = 0.01304	–	–	0.005281	0.006498	0.00753	0.008437	0.009602	0.01206
c1 = 0.01351	–	–	0.005244	0.006448	0.007474	0.008343	0.009533	0.01197
c1 = 0.01397	–	–	0.00521	0.0064	0.007422	0.008286	0.009467	0.01189
c1 = 0.01443	–	–	0.005176	0.006354	0.00737	0.00823	0.009401	0.01181
c1 = 0.01489	–	–	0.00514	0.006307	0.007318	0.008174	0.009336	0.01172
c1 = 0.01534	–	–	0.005107	0.00626	0.007267	0.008118	0.009271	0.01164
c1 = 0.01579	–	–	0.005075	0.006217	0.007217	0.008064	0.009208	0.01156
c1 = 0.01623	–	–	0.005042	0.006174	0.00717	0.008012	0.009146	0.01149
c1 = 0.01666	–	–	0.005011	0.006133	0.007125	0.007962	0.009088	0.01141

CN[C@H](C)[C@@H](O)c1ccccc1.[Cl-].[H+] [D-α-(1-methylaminoethyl)benzyl alcohol] + O
Details	binary diffusion coefficient, 298.15 K [m2/s]	binary diffusion coefficient, 310.15 K [m2/s]	molar conductivity, 283.15 K [S·m2/mol]	molar conductivity, 293.15 K [S·m2/mol]	molar conductivity, 298.15 K [S·m2/mol]	molar conductivity, 303.15 K [S·m2/mol]	molar conductivity, 310.15 K [S·m2/mol]	molar conductivity, 323.15 K [S·m2/mol]
c1 = 0.001	1.13e-09	1.57e-09	–	–	–	–	–	–
c1 = 0.001841	–	–	0.006545	0.00844	0.009366	0.01041	0.01201	0.01524
c1 = 0.00244	–	–	0.006422	0.008268	0.009179	0.0102	0.01177	0.01489
c1 = 0.0025	1.12e-09	1.53e-09	–	–	–	–	–	–
c1 = 0.003031	–	–	0.006316	0.008109	0.009034	0.01001	0.01159	0.01469
c1 = 0.003615	–	–	0.006204	0.007973	0.008901	0.009837	0.01141	0.01444
c1 = 0.004193	–	–	0.006101	0.007849	0.008778	0.009703	0.01122	0.01422
c1 = 0.004763	–	–	0.006018	0.007749	0.008675	0.009566	0.01107	0.01401
c1 = 0.005	1.1e-09	1.48e-09	–	–	–	–	–	–
c1 = 0.005327	–	–	0.005942	0.007661	0.008577	0.009439	0.01094	0.01384
c1 = 0.005884	–	–	0.005866	0.00757	0.008481	0.00932	0.01079	0.01368
c1 = 0.006434	–	–	0.005795	0.007486	0.00839	0.009208	0.0107	0.01352
c1 = 0.006978	–	–	0.005725	0.007395	0.008298	0.009099	0.01057	0.01337
c1 = 0.007516	–	–	0.005655	0.00731	0.008205	0.008991	0.01046	0.01322
c1 = 0.008	1.05e-09	1.42e-09	–	–	–	–	–	–
c1 = 0.008048	–	–	0.005593	0.007232	0.00812	0.008893	0.01036	0.01308
c1 = 0.008573	–	–	0.005534	0.007159	0.00804	0.0088	0.01027	0.01295
c1 = 0.009093	–	–	0.005477	0.007089	0.007965	0.008713	0.01018	0.01283
c1 = 0.009607	–	–	0.005427	0.007027	0.007896	0.008633	0.01009	0.01271
c1 = 0.01	1.01e-09	1.38e-09	–	–	–	–	–	–
c1 = 0.01012	–	–	0.005377	0.006966	0.007829	0.008556	0.01001	0.0126
c1 = 0.01062	–	–	0.005329	0.006904	0.007761	0.008478	0.009923	0.01249
c1 = 0.01111	–	–	0.005284	0.006844	0.007695	0.008404	0.009841	0.01238
c1 = 0.01161	–	–	0.005242	0.006785	0.00763	0.008329	0.00976	0.01228
c1 = 0.01209	–	–	0.005196	0.006729	0.007567	0.008257	0.009679	0.01217
c1 = 0.01257	–	–	0.005156	0.006675	0.007501	0.00819	0.009603	0.01208
c1 = 0.01305	–	–	0.005118	0.006626	0.00745	0.008126	0.009532	0.01198
c1 = 0.01352	–	–	0.005078	0.006576	0.007395	0.008064	0.009461	0.01189
c1 = 0.01398	–	–	0.005038	0.006528	0.007343	0.008005	0.009394	0.01181
c1 = 0.01444	–	–	0.005003	0.006483	0.007291	0.007946	0.009328	0.01172
c1 = 0.0149	–	–	0.004966	0.006437	0.007239	0.007888	0.009261	0.01164
c1 = 0.01535	–	–	0.004929	0.00639	0.007188	0.007831	0.009196	0.01155
c1 = 0.01579	–	–	0.004894	0.006343	0.007138	0.007776	0.009132	0.01147
c1 = 0.01623	–	–	0.004861	0.006302	0.00709	0.007722	0.009069	0.01139
c1 = 0.01667	–	–	0.004832	0.006262	0.007045	0.007671	0.00901	0.01132

From the NIST ThermoML archive (doi:10.1021/je9005757)
